Experimental data from ChEMBL document CHEMBL1201862, “PubChem BioAssay data set” (2004).
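Step 1: Grow cells in 96-well plates. Step 2: Expose to compound for 48 hours at 5 concentrations. Step 3: Interpolate endpoints linearly; if unreached, use highest concentration. GI50: concentration for 50% inhibition of growth.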 Activity calls are given as the source filed them. Cut-off read from the data, not from the text of the source: active = GI50 up to about 1.1 µM and inactive = higher.

Tests used:
Experiment in all cases: NCI anticancer screen, dose series, 48 h
HCT-116 = test system: HCT-116
HCT-15 = test system: HCT-15
HL-60 = test system: HL-60
M14 = test system: M14
Malme-3M = test system: Malme-3M
NCI-H460 = test system: NCI-H460
RPMI-8226 = test system: RPMI-8226
SF-268 = test system: SF-268
SF-295 = test system: SF-295
SF-539 = test system: SF-539
SK-MEL-28 = test system: SK-MEL-28
SK-MEL-2 = test system: SK-MEL-2
SK-OV-3 = test system: SK-OV-3
SNB-75 = test system: SNB-75
U-251 = test system: U-251
SR = test system: SR

Row | Compound | GI50 (HCT-116) | GI50 (HCT-15) | GI50 (HL-60) | GI50 (M14) | GI50 (Malme-3M) | GI50 (NCI-H460) | GI50 (RPMI-8226) | GI50 (SF-268) | GI50 (SF-295) | GI50 (SF-539) | GI50 (SK-MEL-28) | GI50 (SK-MEL-2) | GI50 (SK-OV-3) | GI50 (SNB-75) | GI50 (U-251) | GI50 (SR)
1 | CC1=C(C(=O)Nc2cc(=O)n(C)c(=O)n2C)C(c2ccc([N+](=O)[O-])cc2)C(C(=O)Nc2cc(=O)n(C)c(=O)n2C)=C(C)N1 | 74.3 µM (inactive) | > 100 µM | > 100 µM (inactive) | > 100 µM (inactive) | > 100 µM (inactive) | > 100 µM (inactive) | 59.6 µM (inactive) | > 100 µM (inactive) | > 100 µM (inactive) | > 100 µM (inactive) | > 100 µM (inactive) | > 100 µM (inactive) | 32.3 µM (inactive) | 42 µM (inactive) | > 100 µM (inactive) | 
2 | CCC1CC2C(=O)N(c3ccccc3)C(=O)C2c2[nH]c3ccccc3c21 (stereo not drawn) |  | 60.8 µM | 21.6 µM (inactive) | 17.1 µM (inactive) | 14.1 µM (inactive) | 15.8 µM (inactive) | 22.5 µM (inactive) | 24.5 µM (inactive) | 7.19 µM (inactive) |  | 38.6 µM (inactive) |  | 13.6 µM (inactive) | 3.08 µM (inactive) | 28.5 µM (inactive) | 23.1 µM (inactive)
3 | CCc1ccc(Cc2ccc(CC)c(NC(=O)C(=O)C3NC(=S)NC3=O)c2CC)c(CC)c1NC(=O)C(=O)C1NC(=S)NC1=O (stereo not drawn) | > 100 µM (inactive) | > 100 µM | > 100 µM (inactive) | > 100 µM (inactive) | > 100 µM (inactive) | > 100 µM (inactive) | > 100 µM (inactive) | > 100 µM (inactive) |  | > 100 µM (inactive) | > 100 µM (inactive) | > 100 µM (inactive) | > 100 µM (inactive) | 35.2 µM (inactive) | > 100 µM (inactive) | 
4 | CC(=O)c1cccc(NC(=O)C(=O)C(C(=O)NN)c2ccccc2)c1 (stereo not drawn) | > 100 µM (inactive) | > 100 µM |  | > 100 µM (inactive) | > 100 µM (inactive) | > 100 µM (inactive) | > 100 µM (inactive) | > 100 µM (inactive) |  | > 100 µM (inactive) | > 100 µM (inactive) | > 100 µM (inactive) | > 100 µM (inactive) | > 100 µM (inactive) | > 100 µM (inactive) | 
5 | CCCc1c[nH]c(-c2ccc(-c3cc(CCC)c(C=O)[nH]3)s2)c1 | 18 µM (inactive) | 14.6 µM | 21.2 µM (inactive) | 12.1 µM (inactive) | 15.2 µM (inactive) | 4.55 µM (inactive) |  | 18.3 µM (inactive) | 18.9 µM (inactive) | 18.7 µM (inactive) | 13.6 µM (inactive) | 15 µM (inactive) | 18.5 µM (inactive) | 19.8 µM (inactive) | 15.6 µM (inactive) | 
6 | COC(=O)NN=C1C(C)(C)C(=NNC(=O)OC)C1(C)C | > 45.5 µM (inactive) | > 90.6 µM | > 100 µM (inactive) | > 100 µM (inactive) | > 100 µM (inactive) | > 100 µM (inactive) |  | > 84.1 µM (inactive) | > 100 µM (inactive) | > 100 µM (inactive) | > 100 µM (inactive) | > 100 µM (inactive) | > 100 µM (inactive) | > 100 µM (inactive) | > 62.7 µM (inactive) | 
7 | CC1(C)CCC[C@@]2(C)C1C[C@H](O)[C@@]1(C)O[C@@](C)([C@H](O)CO)CCC21 (stereo partly drawn) | 33 µM (inactive) | 45.5 µM | 24.9 µM (inactive) | 34.6 µM (inactive) | 40.6 µM (inactive) | 40.9 µM (inactive) | 20 µM (inactive) | 30.4 µM (inactive) | 35.6 µM (inactive) | 37.2 µM (inactive) | 34.6 µM (inactive) | 20.7 µM (inactive) | 25.1 µM (inactive) | 20.1 µM (inactive) | 37.2 µM (inactive) | 
